According to ChEMBL document CHEMBL4028908, “The Discovery of 3-((4-Chloro-3-methoxyphenyl)amino)-1-((3R,4S)-4-cyanotetrahydro-2H-pyran-3-yl)-1H-pyrazole-4-carboxamide, a Highly Ligand Efficient and Efficacious Janus Kinase 1 Selective Inhibitor with Favorable Pharmacokinetic Properties” (J Med Chem, 2017):
≈ marks a conversion by molar mass, not a printed value.

Legend:
[1] = Protein binding in cynomolgus monkey plasma; assay type: ADME, cell-free, Macaca fascicularis; conditions: read-out: PPB (converted)
[2] = biological target: T1, Tyrosine-protein kinase JAK1 (Homo sapiens, UniProt P23458); experiment: Inhibition of JAK1 in human whole blood assessed as decrease in cytokine-stimulated STAT phosphorylation preincubated for 20 mins followed by cytokine addition measured after 30 mins
Rattus norvegicus [3] = experiment: Unbound clearance in rat at 0.5 mg/kg, iv or 1 mg/kg, po; assay type: ADME, organism-based; conditions: in vivo
[4] = Volume of distribution at steady state in rat at 0.5 mg/kg, iv or 1 mg/kg, po; assay type: ADME, organism-based; conditions: in vivo, read-out: Vdss
Rattus norvegicus [5] = experiment: Antiinflammatory activity in po dosed Lewis rat type 2 bovine collagen-induced arthritis model assessed as inhibition of paw swelling administered as bid on day 17; assay type: functional, organism-based
[6] = Half life in rat at 0.5 mg/kg, iv or 1 mg/kg, po; assay type: ADME, organism-based; conditions: in vivo
[7] = Volume of distribution at steady state in cynomolgus monkey at 0.25 mg/kg, iv or 0.5 mg/kg, po; assay type: ADME, organism-based, Macaca fascicularis; conditions: in vivo, read-out: Vdss
Homo sapiens = species on record: Homo sapiens; experiment: Selectivity ratio of IC50 for GST-tagged recombinant human JAK2 catalytic domain to IC50 for GST-tagged recombinant human JAK1 catalytic domain
Cynomolgus monkey = experiment: Unbound clearance in cynomolgus monkey at 0.25 mg/kg, iv or 0.5 mg/kg, po; assay type: ADME, organism-based, Macaca fascicularis; conditions: in vivo
[8] = Oral bioavailability in cynomolgus monkey at 0.5 mg/kg; assay type: ADME, organism-based, Macaca fascicularis; conditions: in vivo
[9] = biological target: T1, Tyrosine-protein kinase JAK1
[10] = Half life in dog at 0.25 mg/kg, iv or 0.5 mg/kg, po; assay type: ADME, organism-based, Canis lupus familiaris; conditions: in vivo
[11] = Plasma clearance in rat at 0.5 mg/kg, iv or 1 mg/kg, po; assay type: ADME, organism-based
[12] = Half life in cynomolgus monkey at 0.25 mg/kg, iv or 0.5 mg/kg, po; assay type: ADME, organism-based, Macaca fascicularis; conditions: in vivo
[13] = biological target: T2, Tyrosine-protein kinase JAK2 (Homo sapiens, UniProt O60674)
[14] = Intrinsic clearance in dog hepatocytes after 120 mins by LC-MS/MS analysis; assay type: ADME, cell-based, Canis lupus familiaris, Hepatocyte; conditions: read-out: CLH
[15] = Oral bioavailability in dog at 0.5 mg/kg; assay type: ADME, organism-based, Canis lupus familiaris; conditions: in vivo
[16] = Plasma clearance in cynomolgus monkey at 0.25 mg/kg, iv or 0.5 mg/kg, po; assay type: ADME, organism-based, Macaca fascicularis
[17] = biological target: T3, Tyrosine-protein kinase JAK3 (Homo sapiens, UniProt P52333)
T3 sequence (P52333 whole entry): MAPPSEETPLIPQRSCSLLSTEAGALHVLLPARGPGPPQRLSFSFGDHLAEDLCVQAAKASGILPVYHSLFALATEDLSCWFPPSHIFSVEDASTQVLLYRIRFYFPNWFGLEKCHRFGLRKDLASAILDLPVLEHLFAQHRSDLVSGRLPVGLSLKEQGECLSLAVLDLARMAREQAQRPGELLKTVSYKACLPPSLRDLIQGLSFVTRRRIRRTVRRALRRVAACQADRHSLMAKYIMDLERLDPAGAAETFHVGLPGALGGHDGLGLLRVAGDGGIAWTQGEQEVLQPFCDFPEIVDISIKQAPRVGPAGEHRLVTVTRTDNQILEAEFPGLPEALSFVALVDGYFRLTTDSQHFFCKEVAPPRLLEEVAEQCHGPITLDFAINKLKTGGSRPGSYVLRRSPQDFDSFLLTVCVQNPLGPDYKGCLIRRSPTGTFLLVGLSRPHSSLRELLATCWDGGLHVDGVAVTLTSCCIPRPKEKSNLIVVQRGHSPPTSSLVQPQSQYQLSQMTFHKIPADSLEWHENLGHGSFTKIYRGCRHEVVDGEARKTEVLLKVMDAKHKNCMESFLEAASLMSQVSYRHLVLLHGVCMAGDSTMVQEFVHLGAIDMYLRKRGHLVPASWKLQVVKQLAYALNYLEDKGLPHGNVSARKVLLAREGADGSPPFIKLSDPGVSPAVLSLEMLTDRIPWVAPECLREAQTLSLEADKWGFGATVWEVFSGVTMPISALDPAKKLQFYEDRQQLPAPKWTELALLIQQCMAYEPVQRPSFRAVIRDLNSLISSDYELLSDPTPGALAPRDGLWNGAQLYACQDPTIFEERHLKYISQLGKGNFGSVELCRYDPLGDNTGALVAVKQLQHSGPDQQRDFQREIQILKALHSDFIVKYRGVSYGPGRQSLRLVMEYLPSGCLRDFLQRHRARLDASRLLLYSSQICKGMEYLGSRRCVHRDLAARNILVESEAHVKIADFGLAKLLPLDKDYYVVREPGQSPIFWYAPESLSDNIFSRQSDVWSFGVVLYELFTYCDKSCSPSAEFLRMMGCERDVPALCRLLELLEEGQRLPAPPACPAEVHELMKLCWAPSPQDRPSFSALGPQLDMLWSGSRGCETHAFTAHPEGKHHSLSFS

[18] = Intrinsic clearance in cynomolgus monkey hepatocytes after 120 mins by LC-MS/MS analysis; assay type: ADME, cell-based, Macaca fascicularis, Hepatocyte; conditions: read-out: CLH
[19] = Intrinsic clearance in rat hepatocytes after 120 mins by LC-MS/MS analysis; assay type: ADME, cell-based, Hepatocyte; conditions: read-out: CLH
[20] = biological target: Non-receptor tyrosine-protein kinase TYK2 (Homo sapiens, UniProt P29597)
[21] = Volume of distribution at steady state in dog at 0.25 mg/kg, iv or 0.5 mg/kg, po; assay type: ADME, organism-based, Canis lupus familiaris; conditions: in vivo, read-out: Vdss
[22] = Intrinsic clearance in human hepatocytes after 120 mins by LC-MS/MS analysis; assay type: ADME, cell-based, Hepatocyte; conditions: read-out: CLH
[23] = Protein binding in rat plasma; assay type: ADME, cell-free; conditions: read-out: PPB (converted)
[24] = Lipophilicity, log D of the compound at 100 uM at pH 7 by HPLC/DAD analysis; assay type: physicochemical; conditions: buffer
[25] = Oral bioavailability in rat at 1 mg/kg; assay type: ADME, organism-based; conditions: in vivo
[26] = biological target: T1, Tyrosine-protein kinase JAK1; remark: listed apart in the source
[27] = Plasma clearance in dog at 0.25 mg/kg, iv or 0.5 mg/kg, po; assay type: ADME, organism-based, Canis lupus familiaris
[28] = Protein binding in dog plasma; assay type: ADME, cell-free, Canis lupus familiaris; conditions: read-out: PPB (converted)
[29] = biological target: T2, Tyrosine-protein kinase JAK2; remark: listed apart in the source
[30] = biological target: T4, Voltage-gated inwardly rectifying potassium channel KCNH2 (Homo sapiens, UniProt Q12809)
Canis familiaris = experiment: Unbound clearance in dog at 0.25 mg/kg, iv or 0.5 mg/kg, po; assay type: ADME, organism-based, Canis lupus familiaris; conditions: in vivo
[31] = Solubility of the compound in FaSSIF solution at 100 uM after overnight incubation by UPLC/DAD analysis; assay type: physicochemical
[32] = Apparent permeability of the compound by cell-based assay; assay type: physicochemical; conditions: not told
[33] = biological target: T4, Voltage-gated inwardly rectifying potassium channel KCNH2; experiment: Inhibition of human ERG expressed in HEK293 cells by patch clamp method; assay type: cell-based

T1 sequence (P23458 whole entry): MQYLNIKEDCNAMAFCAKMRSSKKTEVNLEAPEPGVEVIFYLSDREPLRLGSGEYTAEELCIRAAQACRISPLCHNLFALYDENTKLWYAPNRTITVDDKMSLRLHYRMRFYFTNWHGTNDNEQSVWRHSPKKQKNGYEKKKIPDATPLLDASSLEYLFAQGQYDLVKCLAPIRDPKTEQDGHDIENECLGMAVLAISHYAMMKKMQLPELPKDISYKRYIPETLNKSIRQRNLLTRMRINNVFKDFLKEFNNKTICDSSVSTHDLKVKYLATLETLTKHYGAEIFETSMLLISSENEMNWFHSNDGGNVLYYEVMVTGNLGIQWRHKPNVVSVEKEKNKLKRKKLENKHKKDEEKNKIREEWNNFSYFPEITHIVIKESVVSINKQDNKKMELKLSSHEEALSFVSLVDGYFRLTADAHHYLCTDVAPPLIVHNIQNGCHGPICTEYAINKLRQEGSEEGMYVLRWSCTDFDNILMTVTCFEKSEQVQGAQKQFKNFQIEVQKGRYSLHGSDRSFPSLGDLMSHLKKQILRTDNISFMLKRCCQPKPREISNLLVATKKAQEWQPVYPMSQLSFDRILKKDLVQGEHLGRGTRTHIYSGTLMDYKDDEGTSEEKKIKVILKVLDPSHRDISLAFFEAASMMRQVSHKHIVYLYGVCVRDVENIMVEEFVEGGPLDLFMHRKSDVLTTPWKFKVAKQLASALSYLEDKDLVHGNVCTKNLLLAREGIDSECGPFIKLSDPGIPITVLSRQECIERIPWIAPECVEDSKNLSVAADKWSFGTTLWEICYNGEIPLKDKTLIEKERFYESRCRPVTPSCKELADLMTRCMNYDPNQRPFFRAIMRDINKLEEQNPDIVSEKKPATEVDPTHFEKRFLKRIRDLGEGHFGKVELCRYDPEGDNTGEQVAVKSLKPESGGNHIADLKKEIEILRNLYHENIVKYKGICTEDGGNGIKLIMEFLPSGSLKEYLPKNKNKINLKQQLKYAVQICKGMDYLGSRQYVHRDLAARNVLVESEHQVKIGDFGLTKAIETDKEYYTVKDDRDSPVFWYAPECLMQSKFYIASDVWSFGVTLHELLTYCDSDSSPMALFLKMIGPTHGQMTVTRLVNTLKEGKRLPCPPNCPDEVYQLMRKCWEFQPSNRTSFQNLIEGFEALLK
T4 sequence (Q12809 whole entry): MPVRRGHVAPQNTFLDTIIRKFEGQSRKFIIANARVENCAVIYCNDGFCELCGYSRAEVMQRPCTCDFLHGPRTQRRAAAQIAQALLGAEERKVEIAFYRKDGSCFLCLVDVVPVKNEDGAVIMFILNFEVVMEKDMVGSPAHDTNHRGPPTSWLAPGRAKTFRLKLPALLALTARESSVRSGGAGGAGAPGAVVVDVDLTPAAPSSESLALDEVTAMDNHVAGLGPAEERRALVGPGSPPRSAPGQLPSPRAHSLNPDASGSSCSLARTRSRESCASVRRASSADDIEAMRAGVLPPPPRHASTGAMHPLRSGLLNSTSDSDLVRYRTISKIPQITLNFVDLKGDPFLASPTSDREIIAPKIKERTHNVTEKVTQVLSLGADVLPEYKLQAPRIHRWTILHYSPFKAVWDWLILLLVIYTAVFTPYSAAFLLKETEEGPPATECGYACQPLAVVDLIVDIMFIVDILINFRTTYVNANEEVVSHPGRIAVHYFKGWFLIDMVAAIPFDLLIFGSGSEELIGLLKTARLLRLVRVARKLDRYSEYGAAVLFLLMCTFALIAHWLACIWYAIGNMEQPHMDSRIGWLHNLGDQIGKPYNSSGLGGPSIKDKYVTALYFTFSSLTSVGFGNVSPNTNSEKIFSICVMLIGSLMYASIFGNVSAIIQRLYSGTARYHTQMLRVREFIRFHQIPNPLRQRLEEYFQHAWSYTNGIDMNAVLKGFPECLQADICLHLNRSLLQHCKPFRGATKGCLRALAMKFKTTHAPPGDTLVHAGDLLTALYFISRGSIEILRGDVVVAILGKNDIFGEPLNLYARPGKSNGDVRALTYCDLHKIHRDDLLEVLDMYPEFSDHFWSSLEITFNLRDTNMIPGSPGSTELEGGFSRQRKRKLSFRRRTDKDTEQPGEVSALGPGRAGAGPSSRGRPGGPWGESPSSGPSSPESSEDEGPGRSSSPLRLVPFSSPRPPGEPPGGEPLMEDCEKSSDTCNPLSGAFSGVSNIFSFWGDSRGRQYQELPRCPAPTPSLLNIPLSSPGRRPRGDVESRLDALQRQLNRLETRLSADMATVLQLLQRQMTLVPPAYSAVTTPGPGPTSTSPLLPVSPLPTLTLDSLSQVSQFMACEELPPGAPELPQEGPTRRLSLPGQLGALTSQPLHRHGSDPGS
Chain of Non-receptor tyrosine-protein kinase TYK2 (P29597 whole entry): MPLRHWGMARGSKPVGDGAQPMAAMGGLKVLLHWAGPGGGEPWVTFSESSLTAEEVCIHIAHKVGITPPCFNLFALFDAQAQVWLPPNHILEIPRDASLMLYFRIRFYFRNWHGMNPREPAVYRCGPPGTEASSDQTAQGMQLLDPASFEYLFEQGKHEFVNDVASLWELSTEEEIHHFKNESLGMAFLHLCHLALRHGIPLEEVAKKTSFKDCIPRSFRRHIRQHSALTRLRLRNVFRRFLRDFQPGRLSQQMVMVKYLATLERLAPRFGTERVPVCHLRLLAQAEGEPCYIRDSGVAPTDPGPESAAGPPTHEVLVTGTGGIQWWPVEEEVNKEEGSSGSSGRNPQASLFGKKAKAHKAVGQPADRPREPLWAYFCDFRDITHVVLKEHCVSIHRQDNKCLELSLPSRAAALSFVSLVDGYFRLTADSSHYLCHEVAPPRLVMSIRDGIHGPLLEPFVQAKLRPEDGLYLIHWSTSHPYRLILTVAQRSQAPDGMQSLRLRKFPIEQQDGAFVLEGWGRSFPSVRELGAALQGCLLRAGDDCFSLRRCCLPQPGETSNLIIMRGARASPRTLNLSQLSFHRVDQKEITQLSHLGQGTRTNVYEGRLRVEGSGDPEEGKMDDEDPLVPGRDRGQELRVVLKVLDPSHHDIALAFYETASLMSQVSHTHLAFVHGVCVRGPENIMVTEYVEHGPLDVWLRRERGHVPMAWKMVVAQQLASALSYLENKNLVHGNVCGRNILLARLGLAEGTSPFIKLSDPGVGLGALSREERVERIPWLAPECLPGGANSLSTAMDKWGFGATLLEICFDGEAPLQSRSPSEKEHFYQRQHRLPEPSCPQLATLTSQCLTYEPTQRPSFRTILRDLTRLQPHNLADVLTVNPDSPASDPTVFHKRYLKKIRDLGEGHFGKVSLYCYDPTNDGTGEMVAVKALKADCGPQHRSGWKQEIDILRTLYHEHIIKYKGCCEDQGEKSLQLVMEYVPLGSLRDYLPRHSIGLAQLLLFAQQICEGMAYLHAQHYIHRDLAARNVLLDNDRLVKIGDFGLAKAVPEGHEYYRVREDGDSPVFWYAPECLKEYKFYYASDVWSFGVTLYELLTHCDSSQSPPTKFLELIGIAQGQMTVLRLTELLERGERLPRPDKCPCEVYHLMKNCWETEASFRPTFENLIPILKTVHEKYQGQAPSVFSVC
T2 sequence (O60674 whole entry): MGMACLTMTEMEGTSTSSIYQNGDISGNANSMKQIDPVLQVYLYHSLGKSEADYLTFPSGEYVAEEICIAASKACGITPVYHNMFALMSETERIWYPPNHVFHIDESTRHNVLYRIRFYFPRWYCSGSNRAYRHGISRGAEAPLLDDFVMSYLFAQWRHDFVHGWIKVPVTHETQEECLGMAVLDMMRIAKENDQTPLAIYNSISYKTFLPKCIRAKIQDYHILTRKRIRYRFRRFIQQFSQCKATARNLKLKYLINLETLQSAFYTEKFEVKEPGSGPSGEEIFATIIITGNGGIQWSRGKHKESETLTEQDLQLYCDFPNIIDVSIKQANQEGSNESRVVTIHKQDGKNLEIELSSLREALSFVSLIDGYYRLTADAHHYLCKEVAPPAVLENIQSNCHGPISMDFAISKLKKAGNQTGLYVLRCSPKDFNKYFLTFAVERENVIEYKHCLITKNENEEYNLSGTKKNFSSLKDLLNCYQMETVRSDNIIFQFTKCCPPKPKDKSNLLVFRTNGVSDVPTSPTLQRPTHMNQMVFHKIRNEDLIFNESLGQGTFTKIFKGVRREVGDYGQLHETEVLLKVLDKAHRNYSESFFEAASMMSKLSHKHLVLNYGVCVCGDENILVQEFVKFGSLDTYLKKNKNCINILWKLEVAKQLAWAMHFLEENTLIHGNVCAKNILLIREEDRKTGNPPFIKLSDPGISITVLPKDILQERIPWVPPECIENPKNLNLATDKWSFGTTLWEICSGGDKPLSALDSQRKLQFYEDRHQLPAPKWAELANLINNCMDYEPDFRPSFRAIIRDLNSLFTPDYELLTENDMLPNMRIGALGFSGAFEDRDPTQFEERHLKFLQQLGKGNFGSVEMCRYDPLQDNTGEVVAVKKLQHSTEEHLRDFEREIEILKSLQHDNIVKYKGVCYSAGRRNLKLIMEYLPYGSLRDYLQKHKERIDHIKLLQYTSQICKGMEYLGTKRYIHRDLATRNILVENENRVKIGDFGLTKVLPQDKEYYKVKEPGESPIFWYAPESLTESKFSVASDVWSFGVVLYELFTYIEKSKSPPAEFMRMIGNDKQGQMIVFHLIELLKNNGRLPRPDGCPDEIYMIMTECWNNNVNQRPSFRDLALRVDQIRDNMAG

Work on `COc1cc(Nc2nn([C@H]3COCC[C@@H]3C#N)cc2C(N)=O)ccc1Cl` yielded a fraction unbound [1] of 0.033, an IC50 [2] of 1760 nM and a CL free (Rattus norvegicus [3]) of 350 mL/min/kg. The Vd [4] was 2.7 L/kg, the inhibition (Rattus norvegicus [5]) was “Dose-dependent effect” and the half-life [6] was 1.6 h. The Vd [7] was 2.8 L/kg, the Ratio IC50 (Homo sapiens) was 39 and the CL free (Cynomolgus monkey) was 581 mL/min/kg. For the same molecule, the bioavailability [8] was 32%, the IC50 [9] was 0.1 nM and the half-life [10] was 1.1 h. For the same molecule, the clearance [11] was 21 mL/min/kg, the half-life [12] was 2.8 h and the IC50 [13] was 320 nM. It also gave a CLint scaled [14] of 122 mL/min/kg, a bioavailability [15] of 29% and a clearance [16] of 19 mL/min/kg. It also gave an IC50 [17] of 397 nM, a CLint scaled [18] of 36 mL/min/kg and a CLint scaled [19] of 35 mL/min/kg. It also gave an IC50 [20] of 12 nM, a Vd [21] of 1.2 L/kg and a CLint scaled [22] of 6 mL/min/kg. For the same molecule, the fraction unbound [23] was 0.06, the logD at 100 µM [24] was 2.34 and the bioavailability [25] was 47%. For the same molecule, the IC50 [26] was 13 nM and the clearance [27] was 14 mL/min/kg.
`N#Cc1ccc(Nc2nn([C@H]3COCC[C@@H]3C#N)cc2C(N)=O)cc1` showed a fraction unbound [1] of 0.21, an IC50 [2] of 220 nM and a CL free (Rattus norvegicus [3]) of 100 mL/min/kg. The Vd [4] was 2.6 L/kg, the inhibition (Rattus norvegicus [5]) was “Dose-dependent effect” and the fraction unbound [28] was 0.18. It also gave an IC50 [29] of 1.2 nM, a half-life [6] of 1.4 h and a Vd [7] of 1 L/kg. For the same molecule, the Ratio IC50 (Homo sapiens) was 8, the CL free (Cynomolgus monkey) was 12 mL/min/kg and the bioavailability [8] was 18%. For the same molecule, the IC50 [9] was 0.15 nM, the half-life [10] was 2.6 h and the clearance [11] was 19 mL/min/kg. It also gave a half-life [12] of 5.6 h, an IC50 [30] of 40000 nM and an IC50 [13] of 89 nM. It also gave a CLint scaled [14] of 20 mL/min/kg, a bioavailability [15] of 51% and a clearance [16] of 2.4 mL/min/kg. It also gave an IC50 [17] of 230 nM, a CLint scaled [18] of 6 mL/min/kg and a CLint scaled [19] of 6 mL/min/kg. For the same molecule, the IC50 [20] was 1.2 nM, the Vd [21] was 2.7 L/kg and the CLint scaled [22] was 3 mL/min/kg. For the same molecule, the fraction unbound [23] was 0.19, the logD at 100 µM [24] was 1.77 and the bioavailability [25] was 47%. The IC50 [26] was 13 nM, the clearance [27] was 12 mL/min/kg and the CL free (Canis familiaris) was 67 mL/min/kg. It also gave a solubility at 100 µM [31] of 130 µM (≈ 43.7 µg/mL).
Work on `N#C[C@H]1C[C@@H](N2CCC2)CC[C@@H]1n1cc(C(N)=O)c(Nc2ccc([C@H](O)C(F)(F)F)cc2)n1` yielded a Papp [32] of 3.3 ×10⁻⁶ cm/s, a logD at 100 µM [24] of 1.54 and a bioavailability [25] of 0%.
`CN(C)[C@H]1CC[C@H](n2cc(C(N)=O)c(Nc3ccc(Cl)cc3)n2)[C@@H](C#N)C1` showed a Vd [4] of 11 L/kg, an IC50 [9] of 1.5 nM and a clearance [11] of 41 mL/min/kg. For the same molecule, the IC50 [30] was 12200 nM, the bioavailability [15] was 42% and the IC50 [17] was 1230 nM. For the same molecule, the CLint scaled [19] was 109 mL/min/kg, the IC50 [20] was 13 nM and the IC50 [33] was 3000 nM. For the same molecule, the Vd [21] was 8 L/kg, the CLint scaled [22] was 26 mL/min/kg and the logD at 100 µM [24] was 2.15. It also gave a bioavailability [25] of 16%, an IC50 [26] of 64 nM and a clearance [27] of 21 mL/min/kg.
